This experiment addresses T1, E. coli DNA gyrase B (Escherichia coli, UniProt P0AES6).
T1 construct: gene gyrB
The experiment is described as follows: in vitro E. coli DNA gyrase enzyme inhibition assay (manufacturer's protocol). The format is biochemical.

`N#Cc1c(-c2cn(-c3ccccc3)nc2-c2cc3ccccc3o2)c(C#N)c(=O)n2c1NCCN2` [compound 9, 8-(3-(Benzofuran-2-yl)-1-phenyl-1H-pyrazol-4-yl)-6-oxo-1,3,4,6-tetrahydro-2H-pyrido[1,2-b][1,2,4]triazine-7,9-dicarbonitrile]: the 50% inhibitory concentration (IC50) (as a rule, the midpoint of a concentration-inhibition curve) came out at 9.8 ± 0.21 µM. The same measure for `CC(=O)n1c(C)nc2c(C#N)c(-c3cn(-c4ccccc4)nc3-c3cc4ccccc4o3)c(C#N)c(=O)n21` [compound 10, 3-Acetyl-7-(3-(benzofuran-2-yl)-1-phenyl-1H-pyrazol-4-yl)-3,5-dihydro-2-methyl-5-oxo-[1,2,4]triazolo[1,5-a]pyridine-6,8-dicarbonitrile]: 32.2 ± 0.1 µM.

The values above are taken from publication PMC11676098, “New Benzofuran–Pyrazole-Based Compounds as Promising Antimicrobial Agents: Design, Synthesis, DNA Gyrase B Inhibition, and In Silico Studies” (Pharmaceuticals, 2024).
